# Square brackets hold non-standard residues; d marks the D form. Nle = CCCC[C@H](N)C(=O)O
# Tested on: caspase-3
# Assay: Caspase-3 activating action of β-amyloid and its suppression (Ac-DEVD-AMC substrate)
# Format: cell-based, rat
# Settings: 10^−5 M β-amyloid; cAMP derivative 10^−4 M; FIG. 7
# Description: PC12 cells that had been cultured almost similarly to Example 4 were cultured in a 24-well plate (2×10^5 cells/well). 10^−5 M β-amyloid was added to the plate. At this time, cAMP derivative (10^−4 M) and neuropeptide PACAP (10^−9 M) were added respectively, and then the action of activating caspase-3, an apoptosis-related enzyme, was examined. The caspase-3 activating action was examined using Ac-DEVD-AMC, a caspase-3 specific substrate. […] Further, by the addition of neuropeptide PACAP, an incomplete, approximately 50% suppressive effect was shown. […] Taking into consideration that this suppressive action is not complete, other action mechanisms may also be involved.
row,Compound,effect on caspase-3 activation by β-amyloid
1,"CCCC(=O)Nc1ncnc2c1ncn2[C@@H]1O[C@@H]2COP(=O)(O)O[C@H]2[C@H]1OC(=O)CCC [dibutyryl-cAMP, reference compound]",significantly attenuated

# Same assay, conditions: addition of 10^−5 M β-amyloid; FIG. 7
row,Compound,activity of caspase-3
1,β-amyloid 1-42,improved

# Tested on: PC12 cells
# Assay: Cell death by β-amyloid monitored by lactate dehydrogenase release
# Format: cell-based, rat
# Settings: 48 hours; 0.2 μM insulin-containing serum-free DMEM; FIG. 3
row,Compound,cell death by β-amyloid vs control group
1,β-amyloid 1-42,significant cell death

# Same assay, conditions: 48 hours; 0.25% horse serum and 0.25% newborn calf serum-containing DMEM; FIG. 3
row,Compound,cell death by β-amyloid vs control group
1,β-amyloid 1-42,significant cell death

# Same assay, conditions: 48 hours; 5% horse serum and 5% newborn calf serum-containing DMEM; FIG. 3
row,Compound,cell death by β-amyloid vs control group
1,β-amyloid 1-42,no cell death

# Same assay, conditions: β-amyloid 10^−5M; PACAP27 10^−9M; over time; 0.2 μM insulin-containing serum-free DMEM; FIG. 4
row,Compound,neuroprotective action against cell death by β-amyloid (lactate dehydrogenase released into media)
1,PACAP27 (H-HSDGIFTDSYSRYRKQMAVKKYLAAVL-NH2; ends and bridges not checked) [Peptide 2],cell death was very strongly suppressed

# Tested on: PC12 cells
# Assay: Neuroprotective action against β-amyloid, viable cell count / survival rate by WST-8 method
# Format: cell-based, rat
# Set-up: key to Neuroprotective action: +, P < 0.05 when compared with the no neuropeptide-added group
# Settings: not given
# Description: An experiment was performed similarly to Example 5, and then the neuroprotective action against cell death by β-amyloid of the following PACAP-related neuropeptides (peptides 1, 2, 4, 5, 7, 8, 15, 16, 17, 19, 21, 26, 27, 28, 29, 30, 31, 32, 33, 34, 35, 36, 37, 38 and 39) and VIP-related neuropeptides (peptides 3, 9, 10, 11, 12, 13, 14, 18, 20, 22, 23, 24 and 25) was confirmed. Specifically, amyloid (50 μM) and each of the various PACAP-related neuropeptides and VIP-related neuropeptides were added to the cultured PC12 cells. The number of […] calculated by the WST-8 method, so that comparison and examination was performed for the neuroprotective action of these various peptides against amyloid. If the neuropeptides had neuroprotective action, a clear difference in viable cell count can be observed between cases in which neuropeptides were added and cases in which neuropeptides were not added. In PC12 cells added with each of the various neuropeptides, a case wherein a higher cell survival rate (P<0.05) was observed compared with groups in which neuropeptides had not been added, was determined as having neuroprotective action. The results are shown in Table 1 and Table 2. β-amyloid was added to PC12 cells that had been cultured similarly to Example 5. At this time, neuropeptides PACAP27, VIP and humanin, and a cell-permeable cAMP derivative were allowed to respectively co-exist, so that the effect of these neuropeptides against cell death by β-amyloid was confirmed. Cell death was examined by evaluating cell count using the WST-8 method, and then by calculating cell survival rate. […] In the presence of β-amyloid, approximately 70% of the cells died. […] The neuroprotective action of humanin, a recently found human-derived neuroprotective substance (Proc Natl Acad Sci USA (2001) 98 (11) 6336-6341), was also examined. […] At this time, neuropeptides at various concentrations were allowed to co-exist, so that the relationship between the neuroprotective action and the concentration was investigated. Cells were calculated by the WST-8 method, and then the extent to which cell death by β-amyloid could be attenuated was expressed numerically.
row,Compound,Neuroprotective action
1,PACAP38 [Peptide 1],+

# Same assay, conditions: PACAP-related neuropeptide 10^−9 M; amyloid (50 μM); cell survival rate vs no peptide
row,Compound,Neuroprotective action
1,PACAP short form (PACAP24) (H-HSDGIFTDSYSRYRKQMAVKKYLA-NH2; ends and bridges not checked) [Peptide 26],+
2,"[A^4, V^5]-PACAP27 (H-HSDAVFTDSYSRYRKQMAVKKYLAAVL-NH2; ends and bridges not checked) [Peptide 7]",+
3,"[A^4, V^5, N^9]-PACAP27 [Peptide 8]",+
4,PACAP long form (PACAP31) (H-HSDGIFTDSYSRYRKQMAVKKYLAAVLGKRY-NH2; ends and bridges not checked) [Peptide 32],+
5,PACAP short form (PACAP26) (H-HSDGIFTDSYSRYRKQMAVKKYLAAV-NH2; ends and bridges not checked) [Peptide 28],+
6,Arg-PACAP38 (H-HSDGIFTDSYSRYRRQLAVRRYLAAVLGRRYRQRVRNR-NH2; ends and bridges not checked) [Peptide 4],+
7,PACAP27 highly basic derivative C (H-HSDGIFTDSYSRYRRQLAVRRYLAAVLGRR-NH2; ends and bridges not checked) [Peptide 17],+
8,PACAP-like-peptide (stargazer-PACAP) (H-HSDGIFTDSYSRYRKQMAVQKYLAAVLGRRYRQRVRNK-NH2; ends and bridges not checked) [Peptide 5],+
9,PACAP27 (H-HSDGIFTDSYSRYRKQMAVKKYLAAVL-NH2; ends and bridges not checked) [Peptide 2],+
10,PACAP long form (PACAP28) (H-HSDGIFTDSYSRYRKQMAVKKYLAAVLG-NH2; ends and bridges not checked) [Peptide 29],+
11,PACAP27 highly basic derivative B (H-HSDGIFTDSYSRYRRQLAVRRYLAAVLGKR-NH2; ends and bridges not checked) [Peptide 16],+
12,PACAP long form (PACAP29) (H-HSDGIFTDSYSRYRKQMAVKKYLAAVLGK-NH2; ends and bridges not checked) [Peptide 30],+
13,PACAP long form (PACAP30) (H-HSDGIFTDSYSRYRKQMAVKKYLAAVLGKR-NH2; ends and bridges not checked) [Peptide 31],+
14,PACAP-like-peptide (stingray-PACAP) (H-HSDGIFTDSYSRYRKQMAVKKYLAAVLGKRYKPKRRNSGRRVFY-NH2; ends and bridges not checked) [Peptide 21],+
15,PACAP long form (PACAP35) (H-HSDGIFTDSYSRYRKQMAVKKYLAAVLGKRYKQRV-NH2; ends and bridges not checked) [Peptide 36],+
16,PACAP short form (PACAP25) (H-HSDGIFTDSYSRYRKQMAVKKYLAA-NH2; ends and bridges not checked) [Peptide 27],+
17,Arg-PACAP27 (H-HSDGIFTDSYSRYRRQLAVRRYLAAVL-NH2; ends and bridges not checked) [Peptide 6],+
18,PACAP short form (H-HSDGIFTDSYSRYRKQMAVKKYL-NH2; ends and bridges not checked) [Peptide 19],+
19,PACAP long form (PACAP37) (H-HSDGIFTDSYSRYRKQMAVKKYLAAVLGKRYKQRVKN-NH2; ends and bridges not checked) [Peptide 38],+
20,PACAP long form (PACAP33) (H-HSDGIFTDSYSRYRKQMAVKKYLAAVLGKRYKQ-NH2; ends and bridges not checked) [Peptide 34],+
21,PACAP long form (PACAP34) (H-HSDGIFTDSYSRYRKQMAVKKYLAAVLGKRYKQR-NH2; ends and bridges not checked) [Peptide 35],+
22,PACAP27 highly basic derivative A (H-HSDGIFTDSYSRYRRQLAVRRYLAAVLGK-NH2; ends and bridges not checked) [Peptide 15],+
23,PACAP long form (PACAP36) (H-HSDGIFTDSYSRYRKQMAVKKYLAAVLGKRYKQRVK-NH2; ends and bridges not checked) [Peptide 37],+
24,PACAP long form (PACAP32) (H-HSDGIFTDSYSRYRKQMAVKKYLAAVLGKRYK-NH2; ends and bridges not checked) [Peptide 33],+

# Same assay, conditions: VIP-related neuropeptide 10^−7 M; amyloid (50 μM); cell survival rate vs no peptide
row,Compound,Neuroprotective action
1,VIP short form (VIP27) (HSDAVFTDNYTRLRKQMAVKKYLNSIL) [Peptide 25],+
2,VIP short form (HSDAVFTDNYTRLRKQMAVKKYL) [Peptide 20],+
3,VIP short form (VIP24) (HSDAVFTDNYTRLRKQMAVKKYLN) [Peptide 22],+
4,VIP short form (VIP25) (HSDAVFTDNYTRLRKQMAVKKYLNS) [Peptide 23],+
5,VIP highly basic derivative B (HSDAVFTDNYTRLRRQLAVRRYLNSILNGKR) [Peptide 12],+
6,VIP highly basic derivative A (HSDAVFTDNYTRLRRQLAVRRYLNSILNGK) [Peptide 11],+
7,"[G^4, I^5, S^9]-VIP (H-HSDGIFTDSYTRLRKQMAVKKYLNSILN-NH2; ends and bridges not checked) [Peptide 10]",+
8,VIP highly basic derivative C (HSDAVFTDNYTRLRRQLAVRRYLNSILNGRR) [Peptide 13],+
9,"[G^4, I^5]-VIP (H-HSDGIFTDNYTRLRKQMAVKKYLNSILN-NH2; ends and bridges not checked) [Peptide 9]",+
10,VIP/PACAP highly basic chimera peptide (H-HSDAVFTDNYTRLRRQ[Nle]AVRRYLNSILNGRRYRQRVRNR-NH2; ends and bridges not checked) [Peptide 18],+
11,VIP short form (VIP26) (HSDAVFTDNYTRLRKQMAVKKYLNSI) [Peptide 24],+

# Same assay, conditions: co-existing with β-amyloid; PACAP27 10^−9 M; FIG. 5
row,Compound,neuroprotective action against cell death by β-amyloid (cell survival rate)
1,"humanin (MAPRGFSCLLLLTSEIDLPVKRRA; Humanin; UniProt Q8IVG9 1-24, looked up) [a recently found human-derived neuroprotective substance, reference compound]","showed neuroprotective action, although the effect was also weaker than that of PACAP27"
2,PACAP27 (H-HSDGIFTDSYSRYRKQMAVKKYLAAVL-NH2; ends and bridges not checked) [Peptide 2],distinctly strong neuroprotective action
3,"CCCC(=O)Nc1ncnc2c1ncn2[C@@H]1O[C@@H]2COP(=O)(O)O[C@H]2[C@H]1OC(=O)CCC [dibutyryl-cAMP, reference compound]",cell death was very strongly suppressed

# Same assay, conditions: β-amyloid alone; WST-8; FIG. 5
row,Compound,cells died in the presence of β-amyloid
1,β-amyloid 1-42,approximately 70%

# — US20040132648A1, “Remedies and/or preventives for conformational diseases” (priority 2001, published 2004)
